# In ChEMBL document CHEMBL1949656, “Characterization of a 1,4-disubstituted 1,2,3-triazole binding to T box antiterminator RNA” (Bioorg Med Chem, 2012):
# Calls of active or inactive are those of the source. The calls are words filed in the database; no cut-off is given here.
# Key:
# [1] = biological target: Nucleic Acid; assay: Binding affinity to AM1A T box antiterminator model RNA at 100 to 300 uM after 130 mins by FRET assay; assay type: nucleic-acid assay
# [2] = biological target: Nucleic Acid; assay: Binding affinity to C11U T box antiterminator model RNA at 100 to 300 uM after 130 mins by FRET assay; assay type: nucleic-acid assay
# [3] = system: Nucleic Acid; assay: Binding affinity to AM1A T box antiterminator model RNA assessed as change in melting temperature at 100 uM by UV-thermal denaturation method; assay type: nucleic-acid assay
# [4] = system: Nucleic Acid; assay: Stabilization of AM1A T box antiterminator model RNA assessed as effect on flexibility of RNA after 40 hrs by autoradiography based in-line probing assay; assay type: nucleic-acid assay
# [5] = system: Nucleic Acid; assay: Stabilization of AM1A T box antiterminator model RNA assessed as reduction in flexibility at U6-C12 bulge region of RNA after 40 hrs by autoradiography based in-line probing assay; assay type: nucleic-acid assay
# [6] = system: Nucleic Acid; assay: Binding affinity to AM1A T box antiterminator model RNA assessed as melting temperature at 100 uM by UV-thermal denaturation method (reference value: 51 deg C)
compound,measurement,setting,value
CN(CCCc1ccccc1)Cc1cn(CC(O)COC(=O)NCc2ccccc2)nn1 (stereo unspecified),Kd,[1],56 µM
same,Kd,[2],59 µM
same,Tm(app),[3],69 °C
same,Activity,[4],Active
same,Activity,[5],Active
same,Tm,[6],52 °C
